“And” between values parts separate entries of the source, which are not always exact repeats. Equal entries are not always repeated. Structures can show the parent of a compound that is named as a salt. Where two headings read alike, the source gives them in different places. Marks after values point to notes of the source that are not given here.
Legend:
TbAQP2/HAPT1 = TbAQP2/HAPT1 (Trypanosoma brucei brucei, UniProt Q6ZXT3); assay: cell-based; format: cell-based
T. b. brucei 2T1 = assay: Drug sensitivity assay (resazurin); format: cell-based; settings: Trypanosoma brucei, 48 h drug + 24 h resazurin, read-out: EC50 control 2T1 AVG
Experimental: The tbaqp2/tbaqp3 null cells ([Baker et al., 2012]) and tbaqp1-2-3 null cells ([Jeacock et al., 2017]) (both obtained from David Horn, University of Dundee, UK) are derived from the 2T1 strain of T. b. brucei ([Alsford and Horn, 2008]). The CRK12 RNAi cell line^28 was obtained from Dr Tansy Hammarton (University of Glasgow, UK) and is also based on the 2T1 cell line; RNAi expression was induced with 1 µg/ml tetracycline in the medium. All experiments were performed with bloodstream form trypanosomes grown in vitro in HMI-11 medium as described ([Wallace et al., 2002]) at 37°C in a 5% CO2 atmosphere. Cultures were routinely maintained in 10 ml of this medium, being seeded at 5 × 10^4 cells/ml and passed to fresh medium at reaching approximately 3 × 10^6 cells/ml after 48 hr. For transport experiments 150 or 200 ml of culture was seeded at the same density in large flasks and incubated until the culture reached late-log phase.
Drug sensitivity assays for T. b. brucei bloodstream forms used the cell viability dye resazurin (Sigma) and were performed exactly as described ([Wallace et al., 2002]; [Bridges et al., 2007]) in 96-well plates with doubling dilutions of test compound, starting at 100 µM, over 2 rows of the plate (23 dilutions plus no-drug control). Incubation time with test compound was 48 hr (37°C/5% CO2), followed by an additional 24 hr in the presence of the dye.

tbaqp2 null (AQP2-KO) = assay: Drug sensitivity assay (resazurin); format: cell-based; settings: Trypanosoma brucei, read-out: EC50 AQP2-KO AVG, AQP2-KO / tbaqp2 null; 48 h drug + 24 h resazurin
[1] = system: T. b. brucei s427 WT (bloodstream forms); format: cell-based, Trypanosoma brucei brucei
s427WT bloodstream forms = format: cell-based, Trypanosoma brucei brucei; settings: for 3H-penta: CCCP 20, gramicidin 10, Nigericin 20, NEM 1000; for Inhibition of pentamidine transport: after preincubation
[2] = system: T. b. brucei s427WT cells; format: cell-based, Trypanosoma brucei brucei
CRK12 RNAi cells = assay: [3H]-suramin uptake after CRK12 RNAi induction (endocytosis defect); format: cell-based, Trypanosoma brucei
[3] = CCCP 20, gramicidin 10, Nigericin 20, NEM 1000, Control -95.4
[4] = 25 nM [3H]-pentamidine, 1 mM adenosine, 3 min pre-incubation

Chain of TbAQP2/HAPT1 (Q6ZXT3 whole entry): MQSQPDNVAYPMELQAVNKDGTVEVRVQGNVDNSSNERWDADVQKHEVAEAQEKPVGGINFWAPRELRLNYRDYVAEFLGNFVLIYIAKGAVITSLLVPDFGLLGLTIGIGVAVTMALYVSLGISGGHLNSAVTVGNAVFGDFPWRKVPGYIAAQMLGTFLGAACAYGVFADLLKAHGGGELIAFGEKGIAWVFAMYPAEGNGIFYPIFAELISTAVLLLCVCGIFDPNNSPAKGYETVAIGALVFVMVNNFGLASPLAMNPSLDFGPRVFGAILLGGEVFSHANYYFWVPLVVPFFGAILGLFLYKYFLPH

Row | Compound | ΔG0 (TbAQP2/HAPT1) | δ(ΔG^0) PMD (TbAQP2/HAPT1) | Ki (TbAQP2/HAPT1; Ki) | EC50 (T. b. brucei 2T1) | EC50 (tbaqp2 null (AQP2-KO)) | further results
1 | N=C(N)c1ccc(NCCCCCNc2ccc(C(=N)N)cc2)cc1 [RT-50] | -29.7 kJ/mol | 12.9 kJ/mol | 6270 ± 1300 nM | 4.1 nM | 72 nM | –
2 | Cl.N=C(N)c1ccc(OCCCCOc2ccccc2)cc1.O (hydrate or solvate) [CHI/1/69/1, 4-(4-Phenoxybutoxy)benzimidamide hydrochloride hydrate] | – | – | – | – | – | melting point: 134 to 135 °C
3 | gramicidin | – | – | – | – | – | PMF [1, 3]: -13.1; Effect of ionophore on pentamidine uptake (s427WT bloodstream forms; [4]): strongly inhibited; 3H-penta (s427WT bloodstream forms; Control = 100): 5.87; pentamidine uptake (s427WT bloodstream forms; Gramicidin 1, AVG): 23.3 percentage of the uninhibited control; pentamidine uptake (s427WT bloodstream forms; Gramicidin 5, AVG): 3.7 percentage of the uninhibited control; pentamidine uptake (s427WT bloodstream forms; Gramicidin 10, AVG): 5.9 percentage of the uninhibited control
4 | Cc1ccc(OCCCCCOc2ccc(C(=N)N)cc2)cc1 [CHI/1/72/1, 4-(5-(p-tolyloxy)pentyyloxy)benzimidamide hydrochloride hydrate] | -31.9 kJ/mol | 10.7 kJ/mol | – | 3230 nM | 2640 nM | Ki (TbAQP2/HAPT1; HAPT Ki AVG): 2600 nM; Ki (TbAQP2/HAPT1; HAPT Ki, AVG): 2620 nM
5 | COc1ccc(-c2ccc(-c3ccc(C(=N)N)cc3)o2)cc1 (as salt: hydrochloride) [DB607, 4-(5-(4-methoxyphenyl)furan-2-yl) benzimidamide hydrochloride] | – | – | – | – | – | melting point: 250 to 252 °C (dec.)
6 | Cl.Cl.c1cc(-c2ccc(-c3ccc(CCC4=NCCN4)cc3)s2)ccc1CCC1=NCCN1 [DB1064, 2,5-bis(4-(2-(4,5-dihydro-1H-imidazol-2-yl)ethyl)phenyl) thiophene dihydrochloride] | -31.5 kJ/mol | 11.0 kJ/mol | 3000 ± 820 nM | – | – | melting point: > 225 °C (dec.)
7 | CNC(=N)c1ccc(OCCCCCOc2ccc(C(=N)NC)cc2)cc1 [RT-30] | -37.2 kJ/mol | 5.3 kJ/mol | 300 ± 70 nM | 590 nM | 800 nM | –
8 | carbonyl cyanide m-chlorophenyl hydrazone [CCCP] | – | – | – | – | – | PMF [1, 3]: -45.6; Effect of ionophore on pentamidine uptake (s427WT bloodstream forms; [4]): strongly inhibited; Inhibition of pentamidine transport (s427WT bloodstream forms; 1 µM): ~ 63%; Inhibition of pentamidine transport (s427WT bloodstream forms; 5 µM): ~ 90%; pentamidine uptake (s427WT bloodstream forms; CCCP 0.25, AVG): 106.6 percentage of the uninhibited control; pentamidine uptake (s427WT bloodstream forms; CCCP 0.25, single repeats): 101 percentage of the uninhibited control and 112.1 percentage of the uninhibited control; pentamidine uptake (s427WT bloodstream forms; CCCP 1, AVG): 36.9 percentage of the uninhibited control; pentamidine uptake (s427WT bloodstream forms; CCCP 1, single repeats): 34.6 percentage of the uninhibited control and 39.1 percentage of the uninhibited control; pentamidine uptake (s427WT bloodstream forms; CCCP 5, AVG): 10.3 percentage of the uninhibited control; pentamidine uptake (s427WT bloodstream forms; CCCP 10, AVG): 4.3 percentage of the uninhibited control; 3H-penta (s427WT bloodstream forms; Control = 100): 4.97*; pentamidine uptake (s427WT bloodstream forms; CCCP 20, AVG): 5.0 percentage of the uninhibited control; 3H-penta, outlier (s427WT bloodstream forms; CCCP 20, repeated in the column outlier, Control = 100): 4.97; Inhibition of [3H]-suramin uptake (endocytosis) ([2]; 20 µM CCCP, pre-incubation 3 min, suramin accumulation over 10 min): 32.6%; suramin accumulated, % of no CCCP control ([2]; +CCCP, 10 minutes): 67.3935 % of no CCCP control; pmol suramin accumulated in 10 minutes (Average) ([2]; +CCCP, Average of experiments): 0.5894 pmol; pmol suramin accumulated in 10 minutes (AVG pmol) ([2]; +CCCP, single experiments): 0.4589 pmol and 0.5929 pmol and 0.7163 pmol
9 | CO[C@@H]1C[C@@H](C[C@H]2CC[C@H](C)[C@H]([C@@H](C)C(=O)O)O2)O[C@]2(O[C@](C)([C@H]3CC[C@@](C)([C@@H]4O[C@@H]([C@H]5O[C@@](O)(CO)[C@H](C)C[C@@H]5C)C[C@@H]4C)O3)C[C@H]2C)[C@@H]1C [nigericin] | – | – | – | – | – | PMF [1]: -46.9; Effect of ionophore on pentamidine uptake (s427WT bloodstream forms): strongly inhibited; 3H-penta (s427WT bloodstream forms; Control = 100): 44.45; pentamidine uptake (s427WT bloodstream forms; Nigericin 1, AVG): 109.4 percentage of the uninhibited control; pentamidine uptake (s427WT bloodstream forms; Nigericin 1, single repeats): 108 percentage of the uninhibited control and 110.7 percentage of the uninhibited control; pentamidine uptake (s427WT bloodstream forms; Nigericin 5, AVG): 76.8 percentage of the uninhibited control; pentamidine uptake (s427WT bloodstream forms; Nigericin 10, AVG): 61.2 percentage of the uninhibited control; pentamidine uptake (s427WT bloodstream forms; Nigericin 10, single repeats): 63.9 percentage of the uninhibited control and 61 percentage of the uninhibited control and 53.2 percentage of the uninhibited control and 66.7 percentage of the uninhibited control; pentamidine uptake (s427WT bloodstream forms; Nigericin 20, AVG): 44.5 percentage of the uninhibited control; pentamidine uptake (s427WT bloodstream forms; Nigericin 20, single repeats): 41.7 percentage of the uninhibited control and 44.5 percentage of the uninhibited control and 42.9 percentage of the uninhibited control and 48.7 percentage of the uninhibited control
10 | N=C(N)c1ccc(OCCCCCOc2ccc(N)cc2)cc1 [RT-36] | -36.3 kJ/mol | 6.2 kJ/mol | 430 ± 70 nM | 25700 nM | 23000 nM | –
11 | N=C(N)c1ccc(SCCCCCSc2ccc(C(=N)N)cc2)cc1 [RT-48] | -32.5 kJ/mol | 10.0 kJ/mol | 2010 ± 860 nM | 24 nM | 165 nM | –
12 | N=C(N)c1ccc(-c2ccc(-c3ccc(C(=N)N)cc3)[se]2)cc1 [DB1213] | -35.1 kJ/mol | 7.5 kJ/mol | 720 ± 170 nM | 142 nM | 78 nM | –
13 | c1cc(C2=NCCN2)ccc1OCCCCCOc1ccc(C2=NCCN2)cc1 [RT-32] | -36.5 kJ/mol | 6.0 kJ/mol | 400 ± 80 nM | 400 nM | 500 nM | –
14 | CCN1C(=O)C=CC1=O [NEM, N-ethylmaleimide] | – | – | – | – | – | PMF [1]: -39.3; pentamidine uptake (s427WT bloodstream forms; NEM 1000, AVG): 60.1 percentage of the uninhibited control; pentamidine uptake (s427WT bloodstream forms; NEM 1000, single repeats): 56.77 percentage of the uninhibited control and 56.26 percentage of the uninhibited control and 67.13 percentage of the uninhibited control
15 | N=C(N)c1ccc(-c2ccc(-c3ccc(C(=N)N)cc3)o2)cc1 [DB75] | -25.2 kJ/mol | 17.3 kJ/mol | 38200 ± 10200 nM | 50 nM | 20 nM | Ki (TbAQP2/HAPT1; HAPT Ki AVG): 38300 nM
16 | N=C(N)c1ccc(OCCCCCOc2ccc(C(=N)N)cc2Cl)c(Cl)c1 [RT-43] | -35.9 kJ/mol | 6.6 kJ/mol | 510 ± 150 nM | 180 nM | 235 nM | δ(ΔG0) (TbAQP2/HAPT1): 6.64 kJ/mol
17 | Cl.Cl.N=C(N)c1ccc(OCCOc2ccc(C(=N)N)cc2)cc1.O.O (hydrate or solvate) [Ethamidine, 4,4'-(ethane-1,2-diylbis(oxy))dibenzimidamide dihydrochloride dihydrate] | – | – | – | – | – | melting point: 333 °C
18 | Cc1ccc(C(=O)Nc2ccc(S(=O)(=O)O)c3cc(S(=O)(=O)O)cc(S(=O)(=O)O)c23)cc1NC(=O)c1cccc(NC(=O)Nc2cccc(C(=O)Nc3cc(C(=O)Nc4ccc(S(=O)(=O)O)c5cc(S(=O)(=O)O)cc(S(=O)(=O)O)c45)ccc3C)c2)c1 [Suramin] | – | – | – | – | – | suramin uptake rate, CRK+tet (CRK12 RNAi cells; AVERAGE of the experiments): 0.000346 pmol/1E7 cells/s-1; suramin uptake rate, CRK+tet (CRK12 RNAi cells; single experiments): 0.0003125 pmol/1E7 cells/s-1 and 0.0002775 pmol/1E7 cells/s-1 and 0.0003952 pmol/1E7 cells/s-1 and 0.0004343 pmol/1E7 cells/s-1; suramin uptake rate, CRK-tet (CRK12 RNAi cells; AVERAGE of the experiments): 0.000523 pmol/1E7 cells/s-1; suramin uptake rate, CRK-tet (CRK12 RNAi cells; single experiments): 0.0004923 pmol/1E7 cells/s-1 and 0.0003572 pmol/1E7 cells/s-1 and 0.000635 pmol/1E7 cells/s-1 and 0.0006387 pmol/1E7 cells/s-1; Reduction of [3H]-suramin uptake (CRK12 RNAi cells; twelve hours after CRK12 RNAi induction): 33%
19 | Cn1c(-c2ccc(-c3ccc(C(=N)N)cc3)o2)nc2ccccc21 (as salt: hydrochloride) [DB960, 4-(5-(1-methyl-1H-benzo[d]imidazol-2-yl)furan-2-yl) benzimidamide dihydrochloride] | – | – | – | – | – | melting point: > 290 °C (dec.)
20 | N=C(N)c1ccc(OCCCCCOc2ccc(C(=N)N)cn2)nc1 [RT-52] | -28.8 kJ/mol | 13.7 kJ/mol | 8840 ± 880 nM | 8.8 nM | 51 nM | –
